Laboratory results from patent US20160106102A1, “KNOWN AND NEW HETEROCYCLIC COMPOUNDS AS PEST CONTROL AGENTS” (BAYER CROPSCIENCE AKTIENGESELLSCHAFT, priority 2013, published 2016).
Where two headings read alike, the source gives them in different places.

Tests used:
[1] = system: Myzus persicae; assay: Myzus persicae - sachet test; type: in vivo; conditions: 100% = all animals killed
Procedure, shortened: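 Green peach aphids feed through a sealed sachet on nutrient medium containing the water-diluted formulation (solvents: 2% N-methylpyrrolidone, 2% diacetone alcohol). Percent mortality read after the chosen time; 100% means all animals killed.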

[2] = system: Myzus persicae; assay: Myzus persicae - spray test; type: in vivo; conditions: application rate of 500 g/ha, after 6 days, sprayed Chinese cabbage leaf discs infested by all stages, 100% = all aphids killed
Protocol: Myzus persicae—spray test Solvent: 78 parts by weight of acetone • • 1.5 parts by weight of dimethylformamide Emulsifier: 0.5 part by weight of alkylaryl polyglycol ether To produce an appropriate active ingredient formulation, 1 part by weight of active ingredient is mixed with the specified amounts of solvent and emulsifier, and the concentrate is diluted to the desired concentration with emulsifier-containing water. Discs of Chinese cabbage leaves (Brassica pekinensis) infested by all stages of the green peach aphid (Myzus persicae) are sprayed with an active ingredient formulation of the desired concentration. After 6 days, the efficacy in % is determined. 100% means that all the aphids have been killed; 0% means that no aphids have been killed.

[3] = log P determination by LC-MS in the acidic range; type: physicochemical; conditions: for log P (acid): LC-MS in the acidic range
Description: The LC-MS determination in the acidic range is effected at pH 2.7 using 0.1% aqueous formic acid and acetonitrile (contains 0.1% formic acid) as eluents, linear gradient from 10% acetonitrile to 95% acetonitrile. Alternatively, the determination is effected in the acidic range at pH 2.3 using 0.1% aqueous phosphoric acid and acetonitrile as eluents; linear gradient from 10% acetonitrile to 95% acetonitrile.

[4] = application rate of 6 ppm in nutrient medium
[5] = application rate of 30 ppm in nutrient medium

Row | Structure (SMILES) | efficacy (kill in %) [1, 4] [%] | efficacy (kill in %) [1, 5] [%] | efficacy in % [2] [%] | log P (acid) [3] | pest or weed control at 6 ppm ([1]; Myzus persicae, application rate of 6 ppm in nutrient medium, read-out: efficacy (kill in %)) [%] | pest or weed control at 30 ppm ([1]; Myzus persicae, application rate of 30 ppm in nutrient medium, read-out: efficacy (kill in %)) [%] | pest or weed control at 500 g/ha ([2]; Myzus persicae, foliar, 144 h, read-out: efficacy in %) [%] | chromatographic logP ([3]; pH 2.7, LC-MS in the acidic range, read-out: log P (acid)) | chromatographic logP ([3]; pH 2.7, values given in the synthesis examples and NMR lists, read-out: HPLC-MS: log P)
1 | Cc1cc(NC(=O)c2cccnc2)nn1C(=O)NCC[S+](C)[O-] (stereo not drawn) [Compound I-1-308] | 100 | 100 | 90 | 0.84 |  |  |  |  | 
2 | COCC(=O)n1nc(NC(=O)c2cccnc2)cc1C [Compound I-1-261] | 100 | 100 | 100 | 1.17 |  |  |  |  | 
3 | Cc1cc(NC(=O)c2cccnc2)nn1Cn1ccnn1 [Compound I-1-223] | 100 | 100 | 100 | 0.65 |  |  |  |  | 
4 | Cc1cc(NC(=O)c2cccnc2)nn1Cc1cn2cc(C(F)(F)F)ccc2n1 [Compound I-1-155] | 100 | 100 | 90 | 1.54 |  |  |  |  | 
5 | Cc1cc(NC(=O)c2cccnc2)nn1C1CCCCC1 [Compound I-1-204] | 80 | 80 | 90 | 2.02 |  |  |  |  | 
6 | C#CCN(C(=O)c1cccnc1)c1cc(C)n(Cc2ncccn2)n1 [Compound I-1-264] | 100 | 100 | 90 | 0.98 |  |  |  |  | 
7 | Cc1cc(NC(=O)c2cccnc2)nn1C(=O)c1cccnc1 [Compound I-1-28] | 100 | 100 | 90 | 1.57 |  |  |  |  | 
8 | Cc1cc(NC(=O)c2cccnc2)nn1C1CCCC1 [Compound I-1-229] | 100 | 100 | 90 | 1.74 |  |  |  |  | 
9 | Cc1cc(NC(=O)c2cccnc2)nn1C(=O)N(C)C [Compound I-1-291] | 100 | 100 | 90 | 0.86 |  |  |  |  | 
10 | Cc1cc(N(C(=O)c2ccc(Cl)cc2)C(=O)c2cccnc2)nn1C(=O)c1ccc(Cl)cc1 [Compound I-1-42] | 80 | 100 | 90 | 4.18 |  |  |  |  | 
11 | CCC(C)NC(=O)n1nc(NC(=O)c2cccnc2)cc1C (stereo not drawn) [Compound I-1-317] | 100 | 100 | 90 | 1.83 |  |  |  |  | 
12 | Cc1cc(NC(=O)c2cccnc2)nn1C(F)F [Compound I-1-8] | 100 | 100 | 90 | 1.19 |  |  |  |  | 
13 | O=C(Nc1ccn(CC(F)F)n1)c1cccnc1 [Compound I-1-13] | 100 | 100 | 90 | 0.74 |  |  |  |  | 
14 | Cn1nc(NC(=O)c2cccnc2)cc1C(F)F [Compound I-1-221] | 100 | 100 | 90 | 1.04 |  |  |  |  | 
15 | Cc1cc(Cn2nc(NC(=O)c3cccnc3)cc2C)no1 [Compound I-1-283] | 100 | 100 | 100 | 1.19 |  |  |  |  | 
16 | Cc1cc(NC(=O)c2cccnc2)nn1CC(F)(F)F [Compound I-1-133] | 100 | 100 | 90 | 1.32 |  |  |  |  | 
17 | Cc1cc(N(CC#N)C(=O)c2cccnc2)nn1Cc1ncccn1 [Compound I-1-262] | 100 | 100 | 90 | 0.84 |  |  |  |  | 
18 | Cc1cc(N(C)C(=O)c2cccnc2)nn1C [Compound I-1-16] |  | 100 | 90 | 0.65 |  |  |  |  | 
19 | Cc1cc(NC(=O)c2cccnc2)nn1C(=O)NCC1CCCO1 (stereo not drawn) [Compound I-1-311] |  | 100 | 90 | 1.45 |  |  |  |  | 
20 | Cc1cc(NC(=O)c2ccc[n+]([O-])c2)nn1Cc1ncccn1 [Compound I-1-128] | 100 | 100 | 90 | 0.55 |  |  |  |  | 
21 | COC(=O)n1nc(NC(=O)c2cccnc2)cc1C [Compound I-1-126] | 100 | 100 | 90 | 1.08 |  |  |  |  | 

Row | Structure (SMILES) | efficacy (kill in %) [1, 4] [%] | efficacy (kill in %) [1, 5] [%] | efficacy in % [2] [%] | log P (acid) [3] | pest or weed control at 6 ppm ([1]; Myzus persicae, application rate of 6 ppm in nutrient medium, read-out: efficacy (kill in %)) [%] | pest or weed control at 30 ppm ([1]; Myzus persicae, application rate of 30 ppm in nutrient medium, read-out: efficacy (kill in %)) [%] | pest or weed control at 500 g/ha ([2]; Myzus persicae, foliar, 144 h, read-out: efficacy in %) [%] | chromatographic logP ([3]; pH 2.7, LC-MS in the acidic range, read-out: log P (acid)) | chromatographic logP ([3]; pH 2.7, values given in the synthesis examples and NMR lists, read-out: HPLC-MS: log P)
22 | COCn1nc(N(C)C(=O)c2cccnc2)cc1C [Compound I-1-178] |  | 80 | 100 | 0.7 |  |  |  |  | 
23 | Cc1c(Cl)c(NC(=O)c2cccnc2)nn1Cc1ncccn1 [Compound I-1-212] | 100 | 100 | 90 | 0.94 |  |  |  |  | 
24 | Cc1cc(NC(=O)c2cccnc2)nn1CN1CCCNC1=O [Compound I-1-149] | 100 | 100 | 90 | 0.62 |  |  |  |  | 
25 | CCS(=O)(=O)N(C)C(=O)n1nc(NC(=O)c2cccnc2)cc1C [Compound I-1-289] | 100 | 100 | 90 | 1.5 |  |  |  |  | 
26 | Cc1cc(NC(=O)c2cccnc2)nn1CC[S+](C)[O-] (stereo not drawn) [Compound I-1-183] | 100 | 100 | 90 | 0.25 |  |  |  |  | 
27 | Cc1cc(NC(=O)c2cccnc2)nn1Cn1ccc(C(F)(F)F)n1 [Compound I-1-228] | 100 | 100 | 90 | 1.86 |  |  |  |  | 
28 | Cc1cc(NC(=O)c2cccnc2)nn1CC(C)C [Compound I-1-12] | 100 | 100 | 80 | 1.59 |  |  |  |  | 
29 | COCCN(CCOC)C(=O)n1nc(NC(=O)c2cccnc2)cc1C [Compound I-1-169] | 100 | 100 | 100 | 1.91 |  |  |  |  | 
30 | Cn1ccc(NC(=O)c2cccnc2)n1 [Compound I-1-198] | 100 | 100 | 90 | 0.22 |  |  |  |  | 
31 | CCCC(C)NC(=O)n1nc(NC(=O)c2cccnc2)cc1C (stereo not drawn) [Compound I-1-318] | 100 | 100 | 90 | 2.18 |  |  |  |  | 
32 | Cc1cc(NC(=O)c2cccnc2)nn1CC(F)F [Compound I-1-4] | 100 | 100 | 100 | 1.05 |  |  |  |  | 
33 | Cc1nnc(Cn2nc(NC(=O)c3cccnc3)cc2C)s1 [Compound I-1-296] | 100 | 100 | 90 | 0.83 |  |  |  |  | 
34 | Cc1cc(NC(=O)c2cccnc2)nn1-c1cccc(F)c1 [Compound I-1-202] | 80 | 100 | 90 | 1.85 |  |  |  |  | 
35 | C#CCn1nc(NC(=O)c2cccnc2)cc1C [Compound I-1-19] | 100 | 100 | 100 | 0.93 |  |  |  |  | 
36 | COc1nn(Cn2nc(NC(=O)c3cccnc3)cc2C)c(=O)n1C1CC1 [Compound I-1-144] | 100 | 100 | 90 | 1.27 |  |  |  |  | 
37 | Cc1cc(NC(=O)c2cccnc2)nn1Cc1ncccn1 [Compound I-1-1] | 100 | 100 | 90 | 0.77 |  |  |  |  | 
38 | Cc1cc(N(C)C(=O)c2cccnc2)nn1-c1ncccn1 [Compound I-1-25, N-Methyl-N-[5-methyl-1-(pyrimidin-2-yl)-1H-pyrazol-3-yl]nicotinamide] |  |  |  |  | 100 | 100 | 100 | 1.02 | 1.02
39 | Cc1cc(NC(=O)c2cccnc2)nn1C(=O)NCC(C)C [Compound I-1-320] | 100 | 100 | 90 | 1.89 |  |  |  |  | 
40 | Cc1cc(NC(=O)c2cccnc2)nn1Cc1nccs1 [Compound I-1-14] | 100 | 100 | 80 | 1.05 |  |  |  |  | 
41 | Cc1cc(NC(=O)c2cccnc2)nn1CC(=O)C1(Cl)CC1 [Compound I-1-260] | 100 | 100 | 90 | 1.38 |  |  |  |  | 
